# pIC50: −log10 of the molar value. “And” between values parts separate entries of the source, which are not always exact repeats. Equal entries are not always repeated.
# Tested on: 379773-124-R-J2-PDC complex spheroids, viability % test/control
# Assay: Anticancer human tumor 379773-124-R-J2-PDC patient-derived endometrial carcinoma cell line growth inhibition [CLK]
# Settings: for viability, T/C: stronger effect = lower value; for pIC50: curve of compound
# Text: A high-throughput screen of multi-cell type tumor spheroids was designed to identify active combinations of […] and targeted small molecules. Complex spheroids include a stromal component modeled by human endothelial cells (HUVEC) and fibroblasts modeled by human mesenchymal stem cells (MSCs). The concentration ranges selected for each drug and investigational agent were based upon clinically achievable concentrations if the clinical Cmax of the agent was known.
# Compounds. The drugs and investigational agents: cirtuvivint (SM08502; NSC835563), CC-671 (NSC850746), vemurafenib (NSC761431), tapotoclax (NSC804041), sotorasib (NSC818433), adagrasib (NSC831453), MRTX-1133 (NSC836407), BAY2416964 (NSC825713), copanlisib (NSC816437), inavolisib (NSC800729), abemaciclib (NSC768073), osimertinib (NSC779217), entinostat (NSC756642), eltanexor (KPT-8602, NSC794443), venetoclax (NSC766270), ceralasertib (NSC777638), bortezomib (NSC756655), olaparib (NSC753686), talazoparib (NSC767125), alisertib (NSC759677), peposertib (NSC802822), gemcitabine (NSC613327), 5-fluorouracil (NSC19893), SN-38 (NSC673596), oxaliplatin (NSC266046), paclitaxel (NSC125973), and doxorubicin (NSC123127), were obtained from the National Cancer Institute (NCI) Developmental Therapeutics Program Chemical Repository. The FDA-approved anticancer drug set is available from the Developmental Therapeutics Program at https://dtp.cancer.gov/organization/dscb/obtaining/available plates.htm. […] The stock solutions were prepared in dimethyl sulfoxide (DMSO, Sigma-Aldrich, St. Louis, MO, cat. D2650), except for the platinum complexes which were prepared in saline (Quality Biological, Gaithersburg, MD, cat. 114-055-101), at 800-fold the tested concentration and stored at -70 degrees C prior to their use. All drugs and investigational agents were tested over a range starting from a high concentration at or near the clinical Cmax and decreasing in half-log increments. If the clinical Cmax for an agent had not been determined, the highest concentration tested was 10 microM.
# Cell Culture. All cells were maintained in an incubator at 37 degrees C and 5% CO2 with 95% humidity. The PDC lines were cultured according to standard operating procedures established by the NCI PDMR. Briefly, all PDCs were thawed and cultured in Matrigel-coated flasks prepared with a working solution of 1X Ham's F-12 nutrient mix, without supplementation (Invitrogen, Waltham, MA, cat. 11765054), 100 U/mL penicillin-streptomycin (Invitrogen, cat. 15140122), and 2.5% Matrigel (Corning Inc., Corning, NY, cat. 354248) for the first three passages. The 947758-054-R-J2-PDC line was cultured in 6B/Colon 1A media, which includes advanced DMEM/F-12 (Thermo Fisher Scientific, cat. 12634028), 10 mM HEPES (Thermo Fisher Scientific, cat. 15630080), 1X GlutaMAX supplement (Thermo Fisher Scientific, cat. 35050061), 0.1 mg/mL primocin (InvivoGen, cat. ant-pm-2), 10% defined fetal bovine serum, heat inactivated (HyClone Laboratories Inc., cat. SH30070.03HI), 1.25 mM N-Acetyl-L-cysteine (Sigma-Aldrich, cat. A9165), 10 mM nicotinamide (Sigma-Aldrich, cat. N0636), 1X B-27 supplement (Thermo Fisher Scientific, cat. 17504044), 1X N-2 supplement (Thermo Fisher Scientific, cat. 17502048), and 10 microM Y-27632 dihydrochloride (Tocris Bioscience, cat. 1254). The 876862-298-R-J1-PDC was cultured in 6E media, which includes all 6B/Colon 1A media components plus 50% L-WRN conditioned media (ATCC, cat. CRL-3276), 50 ng/mL recombinant human EGF recombinant protein (hEGF; Thermo Fisher Scientific, cat. PHG0311), 10 ng/mL recombinant human fibroblast growth factor 10 (hGFG-10; PeproTech, cat. 100-26), 1 ng/mL recombinant human fibroblast growth factor 2 (hFGF-2; PeproTech, cat. 100-18B), and 1 µM prostaglandin E2 (PGE2; Tocris, cat. 2296). The 227483-062-R1-J1-PDC line was cultured in Panc media, containing all 6E components except hFGF-2, with the addition of 500 nM SB-431542 (Selleckchem, cat. S1067) and 10 nM gastrin (Tocris, cat. 3006). […]
# 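Note: compound exposure lasted seven days before the viability readout.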
# 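Throughout, for viability, T/C: 100% = DMSO vehicle control wells.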
Structure (SMILES),"viability, T/C (compound 0.0316 µM)","viability, T/C (compound 0.1 µM)","viability, T/C (compound 0.316 µM)","viability, T/C (compound 1 µM)","viability, T/C (compound 3.16 µM)","viability, T/C (compound 10 µM)",pIC50,"viability, T/C (compound 0.000949 µM)","viability, T/C (compound 0.003 µM)","viability, T/C (compound 0.00949 µM)","viability, T/C (compound 0.03 µM)","viability, T/C (compound 0.0949 µM)","viability, T/C (compound 0.3 µM)","viability, T/C (compound 0.00316 µM)","viability, T/C (compound 0.01 µM)"
C#Cc1c(F)ccc2cc(O)cc(-c3ncc4c(N5CC6CCC(C5)N6)nc(OCC56CCCN5CC(F)C6)nc4c3F)c12 (configuration not stated),90.6% and 93%,79.4% and 89.5%,88.3% and 86.8%,92% and 85.9%,87% and 103%,80% and 87.1%,< 5.00,,,,,,,,
C=C(F)C(=O)N1CCN(c2nc(OCC3CCCN3C)nc3c2CCN(c2cccc4cccc(Cl)c24)C3)CC1CC#N (configuration not stated),76.2% and 106%,93.9% and 84.4%,95% and 80.9%,92% and 98.5%,33.3% and 66.9%,0.2% and 1.39%,5.65 and 5.37,,,,,,,,
C=CC(=O)N1CCN(c2nc(=O)n(-c3c(C)ccnc3C(C)C)c3nc(-c4c(O)cccc4F)c(F)cc23)C(C)C1 (configuration not stated),93.1% and 85.7%,82.4% and 92.2%,88.2% and 84.4%,107% and 91.6%,95.7% and 98.6%,92.6% and 94.5%,< 5.00,,,,,,,,
C=CC(=O)Nc1cc(Nc2nccc(-c3cn(C)c4ccccc34)n2)c(OC)cc1N(C)CCN(C)C,,,,,,,< 6.52,101% and 85.7%,87.9% and 87.5%,91.7% and 74.8%,94.4% and 105%,96.5% and 100%,98.5% and 90.8%,,
CC(C)CC(NC(=O)C(Cc1ccccc1)NC(=O)c1cnccn1)B(O)O (configuration not stated),,,,,,,8.73 and 8.82,83.2% and 77.4%,25.8% and 11.7%,0.16% and 0.15%,0.22% and 0.21%,0.19% and 0.16%,0.09% and 0.12%,,
CC(CO)NC(=O)c1cc(-c2ccc(Cl)cc2)nn(-c2cnn(C)c2)c1=O (configuration not stated),98.9% and 90.2%,83.6% and 92.8%,84.6% and 97.6%,68% and 85.8%,88.3% and 95.1%,72.3% and 68.5%,< 5.00,,,,,,,,
CC(Nc1ccc2c(c1)OCCn1cc(N3C(=O)OCC3C(F)F)nc1-2)C(N)=O (configuration not stated),84.9% and 92.7%,93.1% and 85.8%,93.5% and 79.4%,79% and 87.4%,77.1% and 78.5%,69.1% and 67.6%,< 5.00,,,,,,,,
CC1(C)CCC(CN2CCN(c3ccc(C(=O)NS(=O)(=O)c4ccc(NCC5CCOCC5)c([N+](=O)[O-])c4)c(Oc4cnc5[nH]ccc5c4)c3)CC2)=C(c2ccc(Cl)cc2)C1,89.8% and 83.7%,92.6% and 89.4%,96.8% and 94%,96.9% and 111%,77.8% and 79.7%,3.91% and 4.86%,5.31 and 5.30,,,,,,,,
CC1COCCN1c1cc(C2(S(C)(=N)=O)CC2)nc(-c2ccnc3[nH]ccc23)n1 (configuration not stated),90.7% and 97.2%,80.4% and 89.4%,70.8% and 87.9%,88.6% and 74.2%,44.8% and 47.4%,11.5% and 10.6%,5.57 and 5.54,,,,,,,,
CCCS(=O)(=O)Nc1ccc(F)c(C(=O)c2c[nH]c3ncc(-c4ccc(Cl)cc4)cc23)c1F,83.1% and 93.8%,88.5% and 84.4%,85.2% and 98.8%,100% and 90.3%,81.5% and 78.6%,64.6% and 53.6%,< 5.00,,,,,,,,
CCN1CCN(Cc2ccc(Nc3ncc(F)c(-c4cc(F)c5nc(C)n(C(C)C)c5c4)n3)nc2)CC1,83.8% and 93.2%,110% and 88.4%,89.1% and 101%,81% and 78%,,,< 6.00,,,,,,,87% and 87.5%,81.6% and 73%
